Structures are written as SMILES.

Experimental findings from patent publication US9464077B2, “Nitrogen-containing aromatic heterocyclic compound” (Astellas Pharma Inc., priority 2012, dated 2016) are described below.

The test system of test [1] is bladder cancer patient-derived cell line RT4. The test is described as follows: Anchorage-independent cell growth inhibition, spheroid plate. It counts as cell-based. The note with it: Homo sapiens, 96 h, 4 days, read-out: growth inhibition rate RT4.
Test [2] deals with UM-UC-14 (FGFR3_S249C-positive cells, bladder cancer). The test is described as follows: Antitumor test on UM-UC-14 subcutaneous xenograft. Format: in vivo, nude mice. The note with it: oral, 1 mg/kg/day, once a day, tumor volume at Day 11 vs Day 1. As to the method: 3×10^6 UM-UC-14 cells per 0.1 mL (PBS+matrigel, 1:1) were inoculated subcutaneously into the right flank of nude mice (CAnN, Cg-Foxn1nu/CrlCrlj (nu/nu), male, 4- to 5-week-old), and when their tumor size reached about 250 mm^3, drug administration was started (Day 1). The drug was administered once a day and the tumor size was measured with a caliper and the body weight was also measured every two or three days. The antitumor effect was finally determined based on the tumor volume (mm^3; minor axis (mm)×minor axis (mm)×major axis (mm)/2) at Day 11 (n=3-5). To the control group, 0.5% MC (methyl cellulose) was administered. […] “% regression” indicates what percentage of regression could be achieved compared with the tumor volume at Day 1. Here, the tumor volume at Day 1 means tumor volume immediately before drug administration.

Usually inhibition stands for how much of the control response was suppressed. Consider `COc1cc(OC)c(F)c(COc2cnc(Nc3ccc(N4CCC(NCCO)CC4)cc3)nc2)c1F` [Example 299], for which, in test [1] (1 nM), the inhibition at 0.001 µM is 8%. For the same compound, the inhibition at 0.01 µM in test [1] (10 nM) was found to be 45%. For the same compound, the inhibition at 0.1 µM in test [1] (100 nM) stood at 63%. In addition, in test [2], the “Antitumor Activity, % regression” value was found to be 15%.
